In PubChem BioAssay AID192 (DTP/NCI, 2004):
Toxic doses and inconclusive results are not listed. The calls were made as follows: active = survival T/C of 150% or more; inactive = T/C below 125% in these data.

System: BDF1 mice, B16 melanoma ip, median survival T/C
Experiment: NCI In Vivo Anticancer Drug Screen. Data for tumor model B16 Melanoma (intraperitoneal) in B6D2F1 (BDF1) mice
Settings: endpoint: median survival time, higher = longer survival
Procedure, shortened: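 Each result divides a survival or tumor-size measurement in the compound-treated group by the same measurement in the vehicle group.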

[1] = dose: 25.0 mg/kg/injection, schedule: Q01DX009 (ip), vehicle: saline
[2] = dose: 50.0 mg/kg/injection, schedule: Q01DX009 (ip), vehicle: saline
[3] = dose: 100.0 mg/kg/injection, schedule: Q01DX009 (ip), vehicle: saline
[4] = dose: 25.0 micrograms/kg/injection, schedule: Q01DX009 (ip), vehicle: saline
[5] = dose: 50.0 micrograms/kg/injection, schedule: Q01DX009 (ip), vehicle: saline
[6] = dose: 100.0 mg/kg/injection, schedule: Q01DX009 (ip), vehicle: saline with Tween-80
[7] = dose: 6.25 mg/kg/injection, schedule: Q01DX009 (ip), vehicle: saline with Tween-80
[8] = dose: 12.5 mg/kg/injection, schedule: Q01DX009 (ip), vehicle: saline with Tween-80
[9] = dose: 25.0 mg/kg/injection, schedule: Q01DX009 (ip), vehicle: saline with Tween-80
[10] = dose: 50.0 mg/kg/injection, schedule: Q01DX009 (ip), vehicle: saline with Tween-80
[11] = dose: 100.0 mg/kg/injection, schedule: Q01DX009 (ip), vehicle: Klucel (hydroxypropylcellulose) (HPC)
[12] = dose: 200.0 mg/kg/injection, schedule: Q01DX009 (ip), vehicle: Klucel (hydroxypropylcellulose) (HPC)
[13] = dose: 400.0 mg/kg/injection, schedule: Q01DX009 (ip), vehicle: Klucel (hydroxypropylcellulose) (HPC)
[14] = dose: 25.0 mg/kg/injection, schedule: Q01DX009 (ip), vehicle: other
[15] = dose: 50.0 mg/kg/injection, schedule: Q01DX009 (ip), vehicle: other
[16] = dose: 100.0 mg/kg/injection, schedule: Q01DX009 (ip), vehicle: other

Measured: T/C

CC[C@H]1CN2CCc3cc(OC)c(OC)cc3[C@@H]2C[C@@H]1C[C@H]1NCCc2c1[nH]c1ccc(O)cc21
inactive: dose: 0.25 mg/kg/injection, schedule: Q01DX009 (ip), vehicle: Klucel (hydroxypropylcellulose) (HPC) 111 % of control | dose: 0.5 mg/kg/injection, schedule: Q01DX009 (ip), vehicle: Klucel (hydroxypropylcellulose) (HPC) 114 % of control | dose: 1.0 mg/kg/injection, schedule: Q01DX009 (ip), vehicle: Klucel (hydroxypropylcellulose) (HPC) 123 % of control

CC(NC(=O)OCc1ccccc1)C(=O)O (stereo not drawn)
inactive: dose: 3.12 mg/kg/injection, schedule: Q01DX009 (ip), vehicle: Klucel (hydroxypropylcellulose) (HPC) 97 % of control | dose: 6.25 mg/kg/injection, schedule: Q01DX009 (ip), vehicle: Klucel (hydroxypropylcellulose) (HPC) 88 % of control | dose: 12.5 mg/kg/injection, schedule: Q01DX009 (ip), vehicle: Klucel (hydroxypropylcellulose) (HPC) 94 % of control | dose: 25.0 mg/kg/injection, schedule: Q01DX009 (ip), vehicle: Klucel (hydroxypropylcellulose) (HPC) 88 % of control | dose: 100.0 mg/kg/injection, schedule: Q04DX003 (ip), vehicle: Klucel (hydroxypropylcellulose) (HPC) 88 % of control

Nc1nc2c(c(=O)[nH]1)NC(CCNc1ccc(C(=O)NC(CCC(=O)O)C(=O)O)cc1)CN2 (stereo not drawn)
inactive: [1] 94 % of control | [2] 102 % of control | [3] 110 % of control

CCCCCCCC(=O)N(C)OC
inactive: dose: 6.25 mg/kg/injection, schedule: Q04DX003 (ip), vehicle: Klucel (hydroxypropylcellulose) (HPC) 107 % of control | dose: 12.5 mg/kg/injection, schedule: Q04DX003 (ip), vehicle: Klucel (hydroxypropylcellulose) (HPC) 96 % of control | dose: 25.0 mg/kg/injection, schedule: Q04DX003 (ip), vehicle: Klucel (hydroxypropylcellulose) (HPC) 112 % of control

C=CCCC(=O)CCCC(=O)O[C@@H]1[C@@H]2[C@H](CC1(C)C)[C@H](O)[C@@]13O[C@@H]1[C@H](O)[C@@]1(CO1)[C@@]23C
inactive: dose: 6.2 micrograms/kg/injection, schedule: Q01DX009 (ip), vehicle: saline 98 % of control | dose: 6.3 micrograms/kg/injection, schedule: Q01DX009 (ip), vehicle: Klucel (hydroxypropylcellulose) (HPC) 107 % of control | dose: 12.5 micrograms/kg/injection, schedule: Q01DX009 (ip), vehicle: Klucel (hydroxypropylcellulose) (HPC) 121 % of control | dose: 12.5 micrograms/kg/injection, schedule: Q01DX009 (ip), vehicle: saline 97 % of control | [4] 106 % of control | dose: 50.0 micrograms/kg/injection, schedule: Q01DX009 (ip), vehicle: Klucel (hydroxypropylcellulose) (HPC) 91 % of control | [5] 102 % of control

C/C(=N\[N+](C)(C)C)c1ccc(Br)cc1
inactive: [1] 88 % of control | [2] 102 % of control | [3] 94 % of control

O=C(O)CNC(=O)c1ccc([N+](=O)[O-])cc1
inactive: [6] 89 % of control

BrCC[Se]c1ccccc1
inactive: [7] 103 % of control | [8] 95 % of control | [9] 96 % of control | [10] 104 % of control | [6] 89 % of control

CCOc1ccccc1NC(=O)COc1ccc(Cl)cc1
inactive: [11] 106 % of control | [12] 96 % of control | [13] 100 % of control

COC1=C(N)C(=O)c2nc(-c3nc(C(=O)O)c(C)c(-c4ccc(OC)c(OC)c4O)c3N)ccc2C1=O
inactive: dose: 0.03 mg/kg/injection, schedule: Q01DX009 (ip), vehicle: saline 113 % of control | dose: 0.05 mg/kg/injection, schedule: Q01DX009 (ip), vehicle: saline 102 % of control | dose: 0.1 mg/kg/injection, schedule: Q01DX009 (ip), vehicle: saline 102 % of control | dose: 0.2 mg/kg/injection, schedule: Q01DX009 (ip), vehicle: saline 113 % of control | dose: 0.4 mg/kg/injection, schedule: Q01DX009 (ip), vehicle: saline 100 % of control | [4] 100 % of control | [5] 111 % of control | dose: 100.0 micrograms/kg/injection, schedule: Q01DX009 (ip), vehicle: saline 112 % of control | dose: 200.0 micrograms/kg/injection, schedule: Q01DX009 (ip), vehicle: saline 104 % of control

CC(C)(C)OC(=O)NC(Cc1ccc(OCc2ccccc2)cc1)C(=O)O (stereo not drawn)
inactive: [7] 104 % of control | [8] 97 % of control | [9] 96 % of control | [10] 95 % of control | [6] 87 % of control

COc1cc(O)c2c(c1)C(=O)c1cc3c(c(O)c1C2=O)CC(OC)C(C)(O)C3=O (stereo not drawn)
inactive: [14] 104 % of control | [15] 91 % of control | [16] 91 % of control

S=C(SSSSC(=S)N1CCCCC1)N1CCCCC1
inactive: [11] 95 % of control | [12] 90 % of control | [13] 107 % of control

C=CC=O
inactive: dose: 0.45 mg/kg/injection, schedule: Q01DX009 (ip), vehicle: saline 95 % of control | dose: 0.9 mg/kg/injection, schedule: Q01DX009 (ip), vehicle: saline 88 % of control | dose: 1.8 mg/kg/injection, schedule: Q01DX009 (ip), vehicle: saline 90 % of control

C[C@]12CC[C@@H]3c4ccc(O)cc4CC[C@H]3[C@@H]1C[C@@H](O)[C@@H]2O
inactive: dose: 50.0 mg/kg/injection, schedule: Q01DX009 (ip), vehicle: Klucel (hydroxypropylcellulose) (HPC) 102 % of control | [11] 100 % of control | [12] 90 % of control

COc1ccc(NC(=S)Nc2ccc(OC)cc2)cc1
inactive: [11] 106 % of control | [12] 96 % of control | [13] 93 % of control

Cc1ccc(C(=O)/C=C/c2ccccc2)cc1
inactive: [14] 100 % of control | [15] 105 % of control | [16] 107 % of control | dose: 200.0 mg/kg/injection, schedule: Q01DX009 (ip), vehicle: other 100 % of control

COc1cc(/C=C(/C)[N+](=O)[O-])ccc1O
inactive: dose: 50.0 mg/kg/injection, schedule: Q01DX009 (ip), vehicle: carboxymethylcellulose (CMC) 121 % of control | dose: 100.0 mg/kg/injection, schedule: Q01DX009 (ip), vehicle: carboxymethylcellulose (CMC) 102 % of control

N#CCCSC(=S)C1CCCC1=N (stereo not drawn)
inactive: [8] 112 % of control | [9] 106 % of control | [10] 103 % of control | [6] 103 % of control | dose: 200.0 mg/kg/injection, schedule: Q01DX009 (ip), vehicle: saline with Tween-80 108 % of control
